“Also recorded” adds a separate entry of the source.
Key:
[1] = target: T1, Cx43 GJ plaques in ARPE-19 cells (Homo sapiens, UniProt P17302); experiment: Immunocytochemistry and quantification of Cx43 plaques; format: cell-based
T1 construct: a native human cell line, retinal pigmented epithelial cells (ARPE-19), which reportedly has an abundant expression of Cx43; endogenous in cells; host or cells: ARPE-19
Description: In the below Examples 3, 6 and 7 using human retinal epithelial (ARPE-19) cells, the cells were grown in DMEM/F: 12 (Invitrogen), supplemented with 10% fetal calf serum (FCS), 100 units/mL of penicillin, 100 μg/mL of streptomycin, and 0.25 μg/mL of Fungizone® Antimycotic (Invitrogen).
Cells were seeded at 0.05×10^6 per well in 8-well sterile glass microscope chamber slides (Falcon, Corning Life Sciences), and the monolayer was labeled for connexin expression at ˜90-100% confluency. The following steps were conducted at room temperature. Cells were fixed in 4% paraformaldehyde (P6148, Sigma-Aldrich) in PBS with 0.1 mM CaCl2 for 10 min, and washed three times in PBS with 0.1 mM CaCl2. After blocking in 10% normal goat serum in PBS with 0.1 mM CaCl2 for one hour, cells were incubated overnight in primary antibody solution (rabbit anti-Cx43, Sigma C6219) diluted in PBS with 0.1 mM CaCl2. The chamber slides were then washed three times with PBS containing 0.1 mM CaCl2 for 10 minutes, and incubated for a further 45 minutes in goat anti-rabbit Alexa 568 conjugated secondary antibody (Invitrogen #A11036). Cells were counter labeled with DAPI for 5 minutes and washed three times with PBS containing 0.1 mM CaCl2. Chamber wells were removed and cells were mounted anti-fade medium (Citiflour AF-1). Dilution ratios for specified primary and secondary antibodies were used according to manufacturer's recommendations.
ARPE-19 cells were grown until confluent in 8-well glass chamber-slides (BD Falcon). Confluent monolayers of ARPE-19 cells were incubated at a final concentration of 5 to 500 μM) Tonabersat, and/or 10 mM NH4Cl (H. Qin, et al., The Journal of biological chemistry 278, 30005 (Aug. 8, 2003)) in culture medium for 1 or 6 hours. Cells were fixed in 4% PFA (ProSciTech) at pH 7.4 for 10 min at room temperature, permeabilized with 0.05% Triton-X100 in PBS, and incubated in 10% normal goat serum to block non-specific labelling. Cells were rinsed three times with PBS containing 0.1 mM CaCl2 between each fixation, permeabilization, and blocking steps. Cx43 polyclonal rabbit antibody (C6219, Sigma, 1:2000) was applied for 24 hours, followed by a goat anti-rabbit Alexa Fluor® 568 secondary antibody (Invitrogen, 1:200) for 45 minutes. Nuclei were counterstained with DAPI (Invitrogen) at 10,000-fold dilution for 5 mins, and mounted with Citifluor™ mounting medium. Images were visualised and captured using a 63× oil immersion lens on an Olympus FV1000 upright confocal laser scanning microscope and software. The transfluor feature in MetaXpress® Image acquisition and analysis software (Version 5.3.0.1, Molecular Devices) was used to automate and quantify the total area of Cx43 plaques per image. Results represent mean±standard error and statistical tests were conducted using one-way ANOVA and Tukey's multiple comparisons test.

retinal ganglion cells = experiment: In vivo retinal ischaemia-reperfusion model, Tonabersat; parameters: species or system Wistar rats; conditions: 7 days; for Retinal ganglion cell density: ischaemic eyes, mean±standard error
Description: Animals were anesthetized with an intraperitoneal injection of ketamine (60 mg/kg) and medetomidine hydrochloride (0.4 mg/kg) and the cornea anaesthetized with oxybuprocaine hydrochloride (0.4%). The technique of retinal ischaemia-reperfusion has previously been described (D. Sun, et al., The Journal of comparative neurology 505, 114 (Nov. 1, 2007)). Briefly, the left anterior chamber was cannulated with a 30-gauge infusion needle connected by silicone tubing to a reservoir of sterile 0.9% saline. Cannulation was performed using a stereotaxic manipulator arm to avoid injury to the corneal endothelium, iris, or lens. The intraocular pressure of the cannulated eye was raised to 120 mmHg for 60 minutes by elevating the saline reservoir. Retinal ischaemia-reperfusion was confirmed by pallor of the posterior segment. After 60 minutes, the cannula was removed and reperfusion of the retinal vessels was confirmed by ophthalmoscopy. Three experimental arms were applied at the end of 60 minutes of ischaemia. These included: no treatment (n=6), 10 mg/kg Tonabersat (n=6), or 1 mg/kg Tonabersat (n=4). Systemic delivery of 0.25 mL of a 10 mg/ml or 1 mg/ml Tonabersat solution diluted in 40% PEG, 60% cyclodextrin solution was achieved through intraperitoneal delivery at the start of reperfusion. A final blood Tonabersat concentration of 0.319 mM or 0.0319 mM was intended, assuming a blood volume of 20 mL and total systemic uptake of peptide. Animals were euthanized with CO2 at 7 days after reperfusion. One uninjured animal was euthanized to obtain uninjured retinas as normal controls.
After euthanasia eyes were enucleated, and the cornea, lens, and vitreous humour removed. The dorsal aspect of the retina was notched to retain orientation. The retina and sclera were fixed in 4% PFA in PBS for 60 minutes at room temperature (RT). The retina was then carefully removed from the sclera and permeabilized via incubation in 0.5% Triton-X100 in PBS solution for 15 minutes at […] Retinas were mounted onto SuperFrost Plus slides using citifluor mounting medium, and imaged.
Two fields in each quadrant of each retina were imaged giving a total of eight images per retina. This method insured similar locations were assessed between different eyes and avoided any possible area bias present in the retina. Retinal ganglion cell (RGC) labelling was imaged at 10× magnification. […] Spots of one or two pixels that resulted from noise and artefacts that were clearly not RGC of origin were excluded during particle counts. RGC density was calculated as the number of RGCs per cm2.

T1 sequence (P17302 2-382 limits assumed): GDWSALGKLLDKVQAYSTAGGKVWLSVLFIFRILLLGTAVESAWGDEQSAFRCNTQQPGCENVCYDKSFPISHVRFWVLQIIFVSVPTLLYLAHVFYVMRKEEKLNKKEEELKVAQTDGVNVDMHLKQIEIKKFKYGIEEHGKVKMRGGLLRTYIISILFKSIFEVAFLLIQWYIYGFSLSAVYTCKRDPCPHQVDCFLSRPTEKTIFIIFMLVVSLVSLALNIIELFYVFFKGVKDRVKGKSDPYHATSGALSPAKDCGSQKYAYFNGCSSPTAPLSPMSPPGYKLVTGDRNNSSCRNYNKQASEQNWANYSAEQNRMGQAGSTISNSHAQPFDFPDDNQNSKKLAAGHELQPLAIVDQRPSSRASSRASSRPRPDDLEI

SMILES: CC(=O)c1ccc2c(c1)[C@H](NC(=O)c1ccc(F)c(Cl)c1)[C@H](O)C(C)(C)O2 [Tonabersat, N-[(3S,4S)-6-acetyl-3-hydroxy-2,2-dimethyl-3,4-dihydrochromen-4-yl]-3-chloro-4-fluorobenzamide]
- total area of Cx43 plaques per cell, normalized to untreated control ([1]; 5 μM, 10 μM or 50 μM, 1 hour): no significant reduction in Cx43 plaques
- Connexin43 gap junction labelling ([1]; 50 μM, 6 hours): most junctions have been internalised or lost; also recorded: total gap junction loss at cell-cell interfaces
- increase in Cx43 labelling with 10 mM NH4Cl compared to Tonabersat alone ([1]; 100 μM, 1 hour): 104.8%
- total area of Cx43 plaques per cell, normalized to untreated control ([1]; 100 μM, 1 hour): 52.8±5.6%
- total area of Cx43 plaques per cell, normalized to untreated control ([1]; 100 μM, 6 hours): 66.5±5.4%
- increase in Cx43 labelling with 10 mM NH4Cl compared to Tonabersat alone ([1]; 200 μM, 1 hour): 65.4%
- total area of Cx43 plaques per cell, normalized to untreated control ([1]; 200 μM, 1 hour): 63.2±5.6%
- total area of Cx43 plaques per cell, normalized to untreated control ([1]; 200 μM, 6 hours): 62.5±2.3%
- total area of Cx43 plaques per cell, normalized to untreated control ([1]; 500 μM, 6 hours): 60.2±13.6%
- Connexin43 gap junction labelling ([1]; 100 micromolar, 6 hours): very little Connexin43 labelling remains
- RGC loss compared to normal controls (retinal ganglion cells; 1 mg/kg intraperitoneal at start of reperfusion): 18%
- Retinal ganglion cell density (retinal ganglion cells; 1 mg/kg intraperitoneal): 199927±26058 cells/cm2
- RGC loss compared to normal controls (retinal ganglion cells; 10 mg/kg intraperitoneal at start of reperfusion): 35%
- Retinal ganglion cell density (retinal ganglion cells; 10 mg/kg intraperitoneal): 158739±26370 cells/cm2

— patent publication US11401516B2, “Channel modulators” (AUCKLAND UNISERVICES LIMITED, priority 2014, dated 2022)
